Results: ChEMBL document CHEMBL3885861, “Open TG-GATES”

Species: Rattus norvegicus
Assay: Open TG-GATES - Regimen: Single
Type: toxicity, organism-based, Sprague-Dawley
Parameters: regimen Single, gender Male, age 6 weeks
Conditions: in vivo, po, route gavage; for Bas / Eos / Ht / Lym / MCH / Mono / Neu / RBC / Ret: tissue Blood; for KIDNEY_L / KIDNEY_R / KIDNEY_TOTAL: tissue Kidney; for LIVER: tissue Liver; for ALP / ALT / AST / CRE / Ca / DBIL / IP / K / LDH / Na / PL / RALB / TBIL / TC / TG / TP / gamma-GTP: tissue Plasma
[1] = 600 mg/kg, 3 h, dose level Middle
[2] = 600 mg/kg, 6 h, dose level Middle
[3] = 600 mg/kg, 9 h, dose level Middle
[4] = 600 mg/kg, 24 h, dose level Middle
[5] = 2000 mg/kg, 3 h, dose level High
[6] = 2000 mg/kg, 6 h, dose level High
[7] = 2000 mg/kg, 9 h, dose level High
[8] = 2000 mg/kg, 24 h, dose level High

COc1cc2ncnc(Nc3ccc(F)c(Cl)c3)c2cc1OCCCN1CCOCC1 [GEFITINIB] showed a Bas [1] of 0%, an Eos [1] of 0.6% and a Ht [1] of 37%. The Lym [1] was 75%, the MCH [1] was 21.1 pg and the Mono [1] was 2.4%. The Neu [1] was 21%, the RBC [1] was 588 x10_4/ul and the Ret [1] was 9.3%. The KIDNEY_L [1] was 1 g, the KIDNEY_R [1] was 1 g and the KIDNEY_TOTAL [1] was 1.9 g. For the same compound, the LIVER [1] was 9.7 g, the ALP [1] was 1687 IU/L and the ALT [1] was 58.6 IU/L. For the same compound, the AST [1] was 80.8 IU/L, the CRE [1] was 0.1 mg/dL and the Ca [1] was 9.7 mg/dL. For the same compound, the DBIL [1] was 0.016 mg/dL, the IP [1] was 8.6 mg/dL and the K [1] was 3.9 meq/L. For the same compound, the LDH [1] was 191.4 IU/L, the Na [1] was 141.8 meq/L and the PL [1] was 141 mg/dL. The RALB [1] was 3.9 g/dL, the TBIL [1] was 0.074 mg/dL and the TC [1] was 87.2 mg/dL. For the same compound, the TG [1] was 49.7 mg/dL, the TP [1] was 5.4 g/dL and the gamma-GTP [1] was 1 IU/L. The TERMINAL_BW [2] was 210.3 g, the Bas [2] was 0% and the Eos [2] was 0.6%. The Ht [2] was 36.6%, the Lym [2] was 80.2% and the MCH [2] was 21.1 pg. It also gave a Mono [2] of 2.6%, a Neu [2] of 15.6% and an RBC [2] of 582 x10_4/ul. It also gave a Ret [2] of 8.9%, a KIDNEY_L [2] of 0.9 g and a KIDNEY_R [2] of 0.9 g. The KIDNEY_TOTAL [2] was 1.9 g, the LIVER [2] was 9.1 g and the ALP [2] was 1267.2 IU/L. The ALT [2] was 59.4 IU/L, the AST [2] was 82 IU/L and the CRE [2] was 0.1 mg/dL. It also gave a Ca [2] of 9.8 mg/dL, a DBIL [2] of 0.016 mg/dL and an IP [2] of 8.8 mg/dL. The K [2] was 4 meq/L, the LDH [2] was 200.4 IU/L and the Na [2] was 141.3 meq/L. For the same compound, the PL [2] was 152.8 mg/dL, the RALB [2] was 3.9 g/dL and the TBIL [2] was 0.078 mg/dL. It also gave a TC [2] of 96 mg/dL, a TG [2] of 42.8 mg/dL and a TP [2] of 5.4 g/dL. For the same compound, the gamma-GTP [2] was 1 IU/L, the TERMINAL_BW [3] was 212.8 g and the Bas [3] was 0%. The Eos [3] was 0.8%, the Ht [3] was 37% and the Lym [3] was 77.6%. The MCH [3] was 21.1 pg, the Mono [3] was 3% and the Neu [3] was 18%. For the same compound, the RBC [3] was 587 x10_4/ul, the Ret [3] was 9.2% and the KIDNEY_L [3] was 0.9 g. It also gave a KIDNEY_R [3] of 1 g, a KIDNEY_TOTAL [3] of 1.9 g and an LIVER [3] of 8.9 g. For the same compound, the ALP [3] was 1338.6 IU/L, the ALT [3] was 51 IU/L and the AST [3] was 71.2 IU/L. For the same compound, the CRE [3] was 0.2 mg/dL, the Ca [3] was 9.9 mg/dL and the DBIL [3] was 0.016 mg/dL. It also gave an IP [3] of 9.1 mg/dL, a K [3] of 4.2 meq/L and an LDH [3] of 160.6 IU/L. The Na [3] was 143.1 meq/L, the PL [3] was 153 mg/dL and the RALB [3] was 3.8 g/dL. For the same compound, the TBIL [3] was 0.076 mg/dL, the TC [3] was 96 mg/dL and the TG [3] was 46.7 mg/dL. The TP [3] was 5.4 g/dL, the gamma-GTP [3] was 0.9 IU/L and the TERMINAL_BW [4] was 211.6 g. It also gave a Bas [4] of 0%, an Eos [4] of 0.8% and a Ht [4] of 40%. The Lym [4] was 66.2%, the MCH [4] was 20.7 pg and the Mono [4] was 3.6%. For the same compound, the Neu [4] was 29%, the RBC [4] was 625.6 x10_4/ul and the Ret [4] was 7.6%. It also gave a KIDNEY_L [4] of 0.9 g, a KIDNEY_R [4] of 1 g and a KIDNEY_TOTAL [4] of 1.9 g. It also gave an LIVER [4] of 8.9 g, an ALP [4] of 1287.2 IU/L and an ALT [4] of 42 IU/L. For the same compound, the AST [4] was 73.8 IU/L, the CRE [4] was 0.2 mg/dL and the DBIL [4] was 0.008 mg/dL. The IP [4] was 8.9 mg/dL, the K [4] was 4.3 meq/L and the LDH [4] was 178.6 IU/L. The Na [4] was 142.8 meq/L, the PL [4] was 186.2 mg/dL and the RALB [4] was 4 g/dL. The TBIL [4] was 0.058 mg/dL, the TC [4] was 126.4 mg/dL and the TG [4] was 65 mg/dL. The TP [4] was 5.5 g/dL, the gamma-GTP [4] was 1.2 IU/L and the TERMINAL_BW [5] was 214.3 g. The Bas [5] was 0%, the Eos [5] was 0.6% and the Ht [5] was 37.2%. For the same compound, the Lym [5] was 68%, the MCH [5] was 21.3 pg and the Mono [5] was 3%. It also gave a Neu [5] of 27.6%, an RBC [5] of 591 x10_4/ul and a Ret [5] of 9.4%. The KIDNEY_L [5] was 0.9 g, the KIDNEY_R [5] was 0.9 g and the KIDNEY_TOTAL [5] was 1.8 g. For the same compound, the LIVER [5] was 9.4 g, the ALP [5] was 1590.6 IU/L and the ALT [5] was 71 IU/L. For the same compound, the AST [5] was 87.4 IU/L, the CRE [5] was 0.1 mg/dL and the Ca [5] was 9.9 mg/dL. It also gave a DBIL [5] of 0.012 mg/dL, an IP [5] of 9.1 mg/dL and a K [5] of 3.9 meq/L. It also gave an LDH [5] of 236 IU/L, a Na [5] of 141.9 meq/L and a PL [5] of 145.4 mg/dL. It also gave an RALB [5] of 3.9 g/dL, a TBIL [5] of 0.072 mg/dL and a TC [5] of 91.2 mg/dL. For the same compound, the TG [5] was 56.5 mg/dL, the TP [5] was 5.4 g/dL and the gamma-GTP [5] was 0.9 IU/L. The TERMINAL_BW [6] was 213.7 g, the Bas [6] was 0% and the Eos [6] was 0.8%. For the same compound, the Ht [6] was 37.3%, the Lym [6] was 76.4% and the MCH [6] was 21.3 pg. For the same compound, the Mono [6] was 3.2%, the RBC [6] was 589.2 x10_4/ul and the Ret [6] was 9%. The KIDNEY_L [6] was 0.9 g, the KIDNEY_R [6] was 1 g and the KIDNEY_TOTAL [6] was 1.9 g. It also gave an LIVER [6] of 9.1 g, an ALP [6] of 1266.2 IU/L and an ALT [6] of 56.2 IU/L. The AST [6] was 78.6 IU/L, the CRE [6] was 0.2 mg/dL and the Ca [6] was 9.6 mg/dL. The DBIL [6] was 0.024 mg/dL, the IP [6] was 9.1 mg/dL and the K [6] was 3.9 meq/L. For the same compound, the LDH [6] was 184.6 IU/L, the Na [6] was 140.7 meq/L and the PL [6] was 150.8 mg/dL. For the same compound, the RALB [6] was 3.8 g/dL, the TBIL [6] was 0.092 mg/dL and the TC [6] was 99.6 mg/dL. The TG [6] was 30 mg/dL, the TP [6] was 5.4 g/dL and the gamma-GTP [6] was 0.9 IU/L. The TERMINAL_BW [7] was 212.3 g, the Bas [7] was 0% and the Eos [7] was 0.2%. For the same compound, the Ht [7] was 37.4%, the Lym [7] was 76.2% and the MCH [7] was 21.1 pg. It also gave a Mono [7] of 2.4%, a Neu [7] of 20.4% and an RBC [7] of 592.6 x10_4/ul. It also gave a Ret [7] of 9.3%, a KIDNEY_L [7] of 0.9 g and a KIDNEY_R [7] of 1 g. It also gave a KIDNEY_TOTAL [7] of 1.9 g, an LIVER [7] of 8.6 g and an ALP [7] of 1162 IU/L. It also gave an ALT [7] of 56.4 IU/L, an AST [7] of 77.4 IU/L and a CRE [7] of 0.1 mg/dL. It also gave a Ca [7] of 9.6 mg/dL, a DBIL [7] of 0.028 mg/dL and an IP [7] of 8.7 mg/dL. It also gave a K [7] of 3.8 meq/L, an LDH [7] of 210.6 IU/L and a Na [7] of 142.6 meq/L. For the same compound, the PL [7] was 148.2 mg/dL, the RALB [7] was 3.8 g/dL and the TBIL [7] was 0.1 mg/dL. For the same compound, the TC [7] was 98 mg/dL, the TG [7] was 29 mg/dL and the TP [7] was 5.4 g/dL. It also gave a gamma-GTP [7] of 0.9 IU/L, a TERMINAL_BW [8] of 204 g and a Bas [8] of 0%. For the same compound, the Eos [8] was 0.5%, the Ht [8] was 40.5% and the Lym [8] was 59.8%. For the same compound, the MCH [8] was 21 pg, the Mono [8] was 3.5% and the Neu [8] was 35.8%. For the same compound, the RBC [8] was 632 x10_4/ul, the Ret [8] was 8.1% and the KIDNEY_L [8] was 0.9 g. The KIDNEY_R [8] was 0.9 g, the KIDNEY_TOTAL [8] was 1.9 g and the LIVER [8] was 8.6 g. For the same compound, the ALP [8] was 1061.5 IU/L, the ALT [8] was 76.8 IU/L and the AST [8] was 126 IU/L. The CRE [8] was 0.2 mg/dL, the DBIL [8] was 0.03 mg/dL and the IP [8] was 8.4 mg/dL. It also gave a K [8] of 3.5 meq/L, an LDH [8] of 272 IU/L and a Na [8] of 143.2 meq/L. It also gave a PL [8] of 144.8 mg/dL, an RALB [8] of 3.9 g/dL and a TBIL [8] of 0.1 mg/dL. The TC [8] was 111.2 mg/dL, the TG [8] was 39.6 mg/dL and the TP [8] was 5.4 g/dL. For the same compound, the gamma-GTP [8] was 1.4 IU/L.
